Data as given in US11951109B2, “EZH2 inhibitors for treating lymphoma” (Epizyme, Inc., priority 2015, dated 2024).

Columns and labels:
WSU-DLCL2 = assay: Combination of EPZ-6438 and other therapeutic agents (4+3 model), WSU-DLCL2; conditions: Mutant EZH2 GCB; EPZ-6438 4 days then co-treatment 3 days (4+3 model)
SUDHL5 = assay: Combination of EPZ-6438 and other therapeutic agents (4+3 model), SUDHL5; conditions: WT EZH2 GCB
SU-DHL-10 = assay: Combination of EPZ-6438 and other therapeutic agents (4+3 model), SU-DHL-10; conditions: Mutant EZH2 GCB
KARPAS-422 = assay: Combination of EPZ-6438 and other therapeutic agents (4+3 model), KARPAS-422; conditions: Mutant EZH2 GCB
RC-K8 = assay: Combination of EPZ-6438 and other therapeutic agents (4+3 model), RC-K8; conditions: WT EXH2 ABC
SU-DHL-6 = assay: Combination of EPZ-6438 and other therapeutic agents (4+3 model), SU-DHL-6; conditions: Mutant EZH2 GCB
TMD8 = assay: Combination of EPZ-6438 and other therapeutic agents (4+3 model), TMD8; conditions: WT EXH2 ABC

COc1cc(Nc2ncc3c(n2)-c2ccc(Cl)cc2C(c2c(F)cccc2OC)=NC3)ccc1C(=O)O [Alisertib]
combination effect with EPZ-6438, WSU-DLCL2 (WSU-DLCL2): ADD.
combination effect with EPZ-6438, SUDHL5 (SUDHL5): ADD.
combination effect with EPZ-6438, SU-DHL-10 (SU-DHL-10): ADD.

Cn1cc(C2=C(c3cn(C4CCN(Cc5ccccn5)CC4)c4ccccc34)C(=O)NC2=O)c2ccccc21 [Enzastaurin]
combination effect with EPZ-6438, WSU-DLCL2 (WSU-DLCL2): ADD.
combination effect with EPZ-6438, SUDHL5 (SUDHL5): ADD.
combination effect with EPZ-6438, SU-DHL-10 (SU-DHL-10): S

COc1cc([C@@H]2c3cc4c(cc3[C@@H](O[C@@H]3O[C@@H]5CO[C@@H](C)O[C@H]5[C@H](O)[C@H]3O)[C@H]3COC(=O)[C@H]23)OCO4)cc(OC)c1O [Etoposide]
combination effect with EPZ-6438, WSU-DLCL2 (WSU-DLCL2): S
combination effect with EPZ-6438, SUDHL5 (SUDHL5): S
combination effect with EPZ-6438, KARPAS-422 (KARPAS-422): S

CC(C)NC[C@@H](C(=O)N1CCN(c2ncnc3c2[C@H](C)C[C@H]3O)CC1)c1ccc(Cl)cc1 [GDC0068, Ipatasertib]
combination effect with EPZ-6438, WSU-DLCL2 (WSU-DLCL2): S
combination effect with EPZ-6438, SUDHL5 (SUDHL5): S
combination effect with EPZ-6438, KARPAS-422 (KARPAS-422): S

CCn1c(-c2nonc2N)nc2c(C#CC(C)(C)O)ncc(OC[C@H]3CCCNC3)c21 [GSK690693]
combination effect with EPZ-6438, WSU-DLCL2 (WSU-DLCL2): S
combination effect with EPZ-6438, SUDHL5 (SUDHL5): S
combination effect with EPZ-6438, KARPAS-422 (KARPAS-422): S

CCn1cc(-c2ccnc3[nH]c(-c4cccc(CN(C)C)c4)cc23)c(-c2ccc(NC(=O)N(C)C)cc2)n1 [GSK1070916]
combination effect with EPZ-6438, WSU-DLCL2 (WSU-DLCL2): S
combination effect with EPZ-6438, SU-DHL-10 (SU-DHL-10): ADD.

COc1ncc(-c2ccc3nccc(-c4ccnnc4)c3c2)cc1NS(=O)(=O)c1ccc(F)cc1F [GSK2126458, Omipalisib]
combination effect with EPZ-6438, WSU-DLCL2 (WSU-DLCL2): S
combination effect with EPZ-6438, SUDHL5 (SUDHL5): S
combination effect with EPZ-6438, KARPAS-422 (KARPAS-422): S

Nc1cccc2c1CN(C1CCC(=O)NC1=O)C2=O (stereo not shown) [Lenalidomide]
combination effect with EPZ-6438, RC-K8 (RC-K8): S

COC1=CC(c2cc3ccccc3[nH]2)=N/C1=C\c1[nH]c(C)cc1C [Obatoclax]
combination effect with EPZ-6438, SU-DHL-6 (SU-DHL-6): ADD.
combination effect with EPZ-6438, WSU-DLCL2 (WSU-DLCL2): ADD.
combination effect with EPZ-6438, SU-DHL-10 (SU-DHL-10): ADD.
combination effect with EPZ-6438, KARPAS-422 (KARPAS-422): S

CC(=O)c1c(C)c2cnc(Nc3ccc(N4CCNCC4)cn3)nc2n(C2CCCC2)c1=O [Palbociclib]
combination effect with EPZ-6438, WSU-DLCL2 (WSU-DLCL2): S
combination effect with EPZ-6438, SUDHL5 (SUDHL5): S
combination effect with EPZ-6438, KARPAS-422 (KARPAS-422): S

CN(C)C(=O)c1cc2cnc(Nc3ccc(N4CCNCC4)cn3)nc2n1C1CCCC1 [Ribociclib]
combination effect with EPZ-6438, WSU-DLCL2 (WSU-DLCL2): S
combination effect with EPZ-6438, SUDHL5 (SUDHL5): S
combination effect with EPZ-6438, KARPAS-422 (KARPAS-422): S

N#CC[C@H](C1CCCC1)n1cc(-c2ncnc3[nH]ccc23)cn1 [Ruxolitinib]
combination effect with EPZ-6438, TMD8 (TMD8): S
combination effect with EPZ-6438, SU-DHL-10 (SU-DHL-10): S

CNC(=O)c1cc(Oc2ccc(NC(=O)Nc3ccc(Cl)c(C(F)(F)F)c3)cc2)ccn1 [Sorafenib]
combination effect with EPZ-6438, WSU-DLCL2 (WSU-DLCL2): ADD.

CC(C)C[C@H](NC(=O)[C@H](Cc1ccccc1)NC(=O)c1cnccn1)B(O)O [Velcade]
combination effect with EPZ-6438, SU-DHL-6 (SU-DHL-6): ADD.
combination effect with EPZ-6438, WSU-DLCL2 (WSU-DLCL2): ADD.
combination effect with EPZ-6438, SU-DHL-10 (SU-DHL-10): ADD.

CCCS(=O)(=O)Nc1ccc(F)c(C(=O)c2c[nH]c3ncc(-c4ccc(Cl)cc4)cc23)c1F [Vemurafenib]
combination effect with EPZ-6438, WSU-DLCL2 (WSU-DLCL2): ADD.

Rituximab: therapeutic agent combined with EPZ-6438; component of R-CHOP
combination effect with EPZ-6438, SU-DHL-6 (SU-DHL-6): S
combination effect with EPZ-6438, WSU-DLCL2 (WSU-DLCL2): S
